# Laboratory results reported in ChEMBL document CHEMBL3991601, “The target landscape of clinical kinase drugs” (Science, 2017).
# pKd: −log10 of the molar value. Where a name gives a salt, the structure may show the parent alone. The source made the active and inactive calls. Cut-off read from the data, not from the text of the source, for most assays here: actives have a measured Kd and inactives only a lower limit.
# Key:
# [1] = target: T1, Glycogen phosphorylase, liver form (Homo sapiens, UniProt P06737); type: subcellular, K-562, COLO 205, SK-N-BE(2) and MV-4-11, Cell lysate; settings: read-out: Kd apparent
# T1 sequence (P06737 whole entry): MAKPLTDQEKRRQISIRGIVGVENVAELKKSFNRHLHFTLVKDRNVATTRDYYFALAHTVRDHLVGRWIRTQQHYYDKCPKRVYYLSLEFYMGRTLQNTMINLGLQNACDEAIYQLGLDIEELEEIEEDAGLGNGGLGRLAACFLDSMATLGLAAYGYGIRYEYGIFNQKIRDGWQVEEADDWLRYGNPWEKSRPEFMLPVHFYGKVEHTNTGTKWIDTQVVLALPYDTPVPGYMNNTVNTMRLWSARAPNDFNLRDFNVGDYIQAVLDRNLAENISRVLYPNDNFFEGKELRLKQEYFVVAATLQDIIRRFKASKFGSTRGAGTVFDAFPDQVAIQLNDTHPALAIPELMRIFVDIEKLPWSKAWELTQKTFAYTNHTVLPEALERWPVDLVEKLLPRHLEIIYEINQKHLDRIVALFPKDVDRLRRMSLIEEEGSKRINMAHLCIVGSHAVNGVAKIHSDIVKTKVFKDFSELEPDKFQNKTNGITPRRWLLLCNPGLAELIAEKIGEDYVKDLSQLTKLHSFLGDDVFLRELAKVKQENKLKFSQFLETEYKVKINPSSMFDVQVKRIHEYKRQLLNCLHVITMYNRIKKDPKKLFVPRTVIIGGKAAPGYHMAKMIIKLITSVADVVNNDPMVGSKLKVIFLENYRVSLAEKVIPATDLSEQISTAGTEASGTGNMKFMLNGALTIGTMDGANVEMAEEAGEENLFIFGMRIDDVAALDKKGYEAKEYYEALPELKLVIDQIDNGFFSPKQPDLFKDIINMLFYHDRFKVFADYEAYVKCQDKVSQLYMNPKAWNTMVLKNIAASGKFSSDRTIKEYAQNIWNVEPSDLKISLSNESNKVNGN
# [2] = target: T2, Uncharacterized protein FLJ45252 (Homo sapiens, UniProt Q6ZSR9); settings: read-out: Kd apparent; k-562, colo 205, sk-n-be(2) and mv-4-11
# T2 sequence (Q6ZSR9 whole entry): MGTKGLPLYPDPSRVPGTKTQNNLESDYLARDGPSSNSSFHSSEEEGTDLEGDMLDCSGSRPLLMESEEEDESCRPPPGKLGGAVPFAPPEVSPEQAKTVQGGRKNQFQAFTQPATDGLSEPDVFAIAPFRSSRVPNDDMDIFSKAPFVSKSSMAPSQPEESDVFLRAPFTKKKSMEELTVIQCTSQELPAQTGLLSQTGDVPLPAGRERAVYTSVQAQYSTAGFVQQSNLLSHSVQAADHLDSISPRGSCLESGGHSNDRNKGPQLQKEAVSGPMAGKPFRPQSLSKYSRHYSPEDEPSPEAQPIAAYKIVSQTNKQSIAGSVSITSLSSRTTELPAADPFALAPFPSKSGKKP
# [3] = target: Serine/threonine-protein kinase 10 (Homo sapiens, UniProt O94804)
# [4] = target: Casein kinase I isoform alpha (Homo sapiens, UniProt P48729)
# [5] = target: AP2-associated protein kinase 1 (Homo sapiens, UniProt Q2M2I8)
# [6] = target: Tyrosine-protein kinase Yes (Homo sapiens, UniProt P07947)
# Aurora kinase A = target: T3, Aurora kinase A (Homo sapiens, UniProt O14965)
# T3 sequence (O14965 whole entry): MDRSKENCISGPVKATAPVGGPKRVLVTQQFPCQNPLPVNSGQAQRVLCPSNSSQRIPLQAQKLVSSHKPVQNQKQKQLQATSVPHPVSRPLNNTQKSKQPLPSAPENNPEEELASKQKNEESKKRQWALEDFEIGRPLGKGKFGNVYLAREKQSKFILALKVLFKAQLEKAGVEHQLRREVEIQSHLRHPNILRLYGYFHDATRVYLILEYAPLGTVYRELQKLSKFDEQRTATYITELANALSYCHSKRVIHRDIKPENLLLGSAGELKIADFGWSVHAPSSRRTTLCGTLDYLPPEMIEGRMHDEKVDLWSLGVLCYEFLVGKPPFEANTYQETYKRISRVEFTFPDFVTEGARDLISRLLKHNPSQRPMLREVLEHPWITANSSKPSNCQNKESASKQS
# [7] = target: Adenylate kinase 2, mitochondrial (Homo sapiens, UniProt P54819)
# [8] = target: Dual specificity testis-specific protein kinase 1 (Homo sapiens, UniProt Q15569)
# [9] = target: Tyrosine-protein kinase SYK (Homo sapiens, UniProt P43405)
# [10] = target: PAS domain-containing serine/threonine-protein kinase (Homo sapiens, UniProt Q96RG2)
# Note: in the data inactive means no Kd found up to 30 µM.
# Tyrosine-protein kinase Yes, sequence (P07947 whole entry): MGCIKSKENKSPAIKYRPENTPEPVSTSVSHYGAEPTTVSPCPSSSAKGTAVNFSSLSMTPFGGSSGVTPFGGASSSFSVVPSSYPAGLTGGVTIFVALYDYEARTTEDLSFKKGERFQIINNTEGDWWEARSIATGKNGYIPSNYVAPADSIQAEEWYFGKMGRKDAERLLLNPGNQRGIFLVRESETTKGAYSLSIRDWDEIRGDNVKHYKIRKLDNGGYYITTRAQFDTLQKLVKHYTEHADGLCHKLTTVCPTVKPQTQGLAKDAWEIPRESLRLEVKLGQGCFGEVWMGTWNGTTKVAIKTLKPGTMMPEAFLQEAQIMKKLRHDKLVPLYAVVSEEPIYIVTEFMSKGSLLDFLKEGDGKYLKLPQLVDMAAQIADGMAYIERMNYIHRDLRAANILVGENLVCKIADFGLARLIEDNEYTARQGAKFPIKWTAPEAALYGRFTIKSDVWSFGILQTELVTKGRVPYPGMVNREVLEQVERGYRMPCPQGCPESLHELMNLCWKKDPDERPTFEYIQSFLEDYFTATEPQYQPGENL
# Serine/threonine-protein kinase 10, sequence (O94804 whole entry, canonical isoform): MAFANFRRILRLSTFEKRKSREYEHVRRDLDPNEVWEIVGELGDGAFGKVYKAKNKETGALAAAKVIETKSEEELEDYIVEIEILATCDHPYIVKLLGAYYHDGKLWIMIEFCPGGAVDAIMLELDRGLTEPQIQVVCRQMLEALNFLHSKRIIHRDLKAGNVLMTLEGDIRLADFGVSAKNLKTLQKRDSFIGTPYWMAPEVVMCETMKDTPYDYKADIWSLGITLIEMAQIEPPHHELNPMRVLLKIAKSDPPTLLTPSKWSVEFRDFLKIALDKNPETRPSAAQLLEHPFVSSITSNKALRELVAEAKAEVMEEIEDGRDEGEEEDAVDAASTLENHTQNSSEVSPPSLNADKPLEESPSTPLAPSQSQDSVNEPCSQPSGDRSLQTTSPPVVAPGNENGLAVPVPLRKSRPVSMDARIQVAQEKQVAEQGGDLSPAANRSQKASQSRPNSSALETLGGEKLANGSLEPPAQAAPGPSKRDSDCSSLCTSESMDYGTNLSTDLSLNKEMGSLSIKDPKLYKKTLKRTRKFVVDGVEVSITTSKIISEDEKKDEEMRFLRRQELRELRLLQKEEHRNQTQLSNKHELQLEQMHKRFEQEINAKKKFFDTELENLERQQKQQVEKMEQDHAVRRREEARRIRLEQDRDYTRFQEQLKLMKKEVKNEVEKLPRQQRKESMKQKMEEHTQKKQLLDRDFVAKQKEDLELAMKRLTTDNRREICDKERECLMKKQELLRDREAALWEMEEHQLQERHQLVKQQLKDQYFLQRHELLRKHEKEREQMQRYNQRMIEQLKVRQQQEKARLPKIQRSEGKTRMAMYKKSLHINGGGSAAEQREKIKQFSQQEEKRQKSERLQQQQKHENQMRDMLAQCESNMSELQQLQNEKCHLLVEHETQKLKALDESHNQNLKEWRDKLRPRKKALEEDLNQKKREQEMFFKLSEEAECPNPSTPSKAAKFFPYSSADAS
# Casein kinase I isoform alpha, sequence (P48729 whole entry, canonical isoform): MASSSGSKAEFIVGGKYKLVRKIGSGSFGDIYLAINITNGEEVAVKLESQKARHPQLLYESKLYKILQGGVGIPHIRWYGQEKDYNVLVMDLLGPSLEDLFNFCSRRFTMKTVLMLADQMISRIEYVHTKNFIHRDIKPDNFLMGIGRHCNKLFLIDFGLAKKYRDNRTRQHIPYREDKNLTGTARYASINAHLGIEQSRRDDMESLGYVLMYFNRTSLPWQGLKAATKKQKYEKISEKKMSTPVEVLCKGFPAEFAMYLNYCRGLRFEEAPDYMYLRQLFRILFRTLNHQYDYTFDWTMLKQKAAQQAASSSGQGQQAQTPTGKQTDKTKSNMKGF
# AP2-associated protein kinase 1, sequence (Q2M2I8 whole entry): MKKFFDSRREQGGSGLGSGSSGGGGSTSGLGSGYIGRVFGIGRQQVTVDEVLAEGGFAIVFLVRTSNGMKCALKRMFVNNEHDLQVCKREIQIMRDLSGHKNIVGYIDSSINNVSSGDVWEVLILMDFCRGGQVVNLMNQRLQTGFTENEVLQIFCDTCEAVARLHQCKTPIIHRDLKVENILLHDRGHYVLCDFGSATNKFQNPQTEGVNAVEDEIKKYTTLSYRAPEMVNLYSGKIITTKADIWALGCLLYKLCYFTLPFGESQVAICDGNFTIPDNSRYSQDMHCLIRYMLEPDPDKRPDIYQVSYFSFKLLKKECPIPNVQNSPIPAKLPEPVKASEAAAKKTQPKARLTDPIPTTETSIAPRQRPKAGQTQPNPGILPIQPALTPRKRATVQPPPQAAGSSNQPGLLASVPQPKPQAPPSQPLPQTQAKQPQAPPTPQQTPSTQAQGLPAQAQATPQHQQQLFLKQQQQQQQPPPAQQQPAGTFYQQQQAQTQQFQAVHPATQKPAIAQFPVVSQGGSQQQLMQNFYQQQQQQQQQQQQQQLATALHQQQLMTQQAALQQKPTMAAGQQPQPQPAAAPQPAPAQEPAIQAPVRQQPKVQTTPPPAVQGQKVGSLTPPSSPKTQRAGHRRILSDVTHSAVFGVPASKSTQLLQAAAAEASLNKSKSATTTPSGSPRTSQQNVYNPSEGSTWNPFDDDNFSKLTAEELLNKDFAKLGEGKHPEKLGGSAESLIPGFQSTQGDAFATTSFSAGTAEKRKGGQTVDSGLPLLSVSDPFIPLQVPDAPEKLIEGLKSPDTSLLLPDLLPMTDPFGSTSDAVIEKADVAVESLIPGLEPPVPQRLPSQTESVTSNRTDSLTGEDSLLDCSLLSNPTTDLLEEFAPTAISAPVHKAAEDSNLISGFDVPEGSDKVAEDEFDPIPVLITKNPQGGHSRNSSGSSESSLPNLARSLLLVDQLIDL
# Dual specificity testis-specific protein kinase 1, sequence (Q15569 whole entry): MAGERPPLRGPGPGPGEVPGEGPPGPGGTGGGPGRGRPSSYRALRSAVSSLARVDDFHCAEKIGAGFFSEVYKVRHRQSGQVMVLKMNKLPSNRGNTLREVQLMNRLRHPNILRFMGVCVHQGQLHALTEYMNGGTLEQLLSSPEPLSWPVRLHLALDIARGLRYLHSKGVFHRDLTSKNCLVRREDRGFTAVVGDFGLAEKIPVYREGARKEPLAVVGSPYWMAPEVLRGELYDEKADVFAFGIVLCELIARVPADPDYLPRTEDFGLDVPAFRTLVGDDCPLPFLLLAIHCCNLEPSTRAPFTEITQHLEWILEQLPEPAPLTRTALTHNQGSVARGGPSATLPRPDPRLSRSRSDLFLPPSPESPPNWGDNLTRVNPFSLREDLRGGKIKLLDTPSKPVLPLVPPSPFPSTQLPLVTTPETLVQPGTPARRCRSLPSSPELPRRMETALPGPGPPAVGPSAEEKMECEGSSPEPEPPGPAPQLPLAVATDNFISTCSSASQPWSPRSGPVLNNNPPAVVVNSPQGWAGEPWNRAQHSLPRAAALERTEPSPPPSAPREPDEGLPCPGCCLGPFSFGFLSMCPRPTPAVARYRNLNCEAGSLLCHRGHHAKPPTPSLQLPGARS
# PAS domain-containing serine/threonine-protein kinase, sequence (Q96RG2 whole entry, the tested form may be a part): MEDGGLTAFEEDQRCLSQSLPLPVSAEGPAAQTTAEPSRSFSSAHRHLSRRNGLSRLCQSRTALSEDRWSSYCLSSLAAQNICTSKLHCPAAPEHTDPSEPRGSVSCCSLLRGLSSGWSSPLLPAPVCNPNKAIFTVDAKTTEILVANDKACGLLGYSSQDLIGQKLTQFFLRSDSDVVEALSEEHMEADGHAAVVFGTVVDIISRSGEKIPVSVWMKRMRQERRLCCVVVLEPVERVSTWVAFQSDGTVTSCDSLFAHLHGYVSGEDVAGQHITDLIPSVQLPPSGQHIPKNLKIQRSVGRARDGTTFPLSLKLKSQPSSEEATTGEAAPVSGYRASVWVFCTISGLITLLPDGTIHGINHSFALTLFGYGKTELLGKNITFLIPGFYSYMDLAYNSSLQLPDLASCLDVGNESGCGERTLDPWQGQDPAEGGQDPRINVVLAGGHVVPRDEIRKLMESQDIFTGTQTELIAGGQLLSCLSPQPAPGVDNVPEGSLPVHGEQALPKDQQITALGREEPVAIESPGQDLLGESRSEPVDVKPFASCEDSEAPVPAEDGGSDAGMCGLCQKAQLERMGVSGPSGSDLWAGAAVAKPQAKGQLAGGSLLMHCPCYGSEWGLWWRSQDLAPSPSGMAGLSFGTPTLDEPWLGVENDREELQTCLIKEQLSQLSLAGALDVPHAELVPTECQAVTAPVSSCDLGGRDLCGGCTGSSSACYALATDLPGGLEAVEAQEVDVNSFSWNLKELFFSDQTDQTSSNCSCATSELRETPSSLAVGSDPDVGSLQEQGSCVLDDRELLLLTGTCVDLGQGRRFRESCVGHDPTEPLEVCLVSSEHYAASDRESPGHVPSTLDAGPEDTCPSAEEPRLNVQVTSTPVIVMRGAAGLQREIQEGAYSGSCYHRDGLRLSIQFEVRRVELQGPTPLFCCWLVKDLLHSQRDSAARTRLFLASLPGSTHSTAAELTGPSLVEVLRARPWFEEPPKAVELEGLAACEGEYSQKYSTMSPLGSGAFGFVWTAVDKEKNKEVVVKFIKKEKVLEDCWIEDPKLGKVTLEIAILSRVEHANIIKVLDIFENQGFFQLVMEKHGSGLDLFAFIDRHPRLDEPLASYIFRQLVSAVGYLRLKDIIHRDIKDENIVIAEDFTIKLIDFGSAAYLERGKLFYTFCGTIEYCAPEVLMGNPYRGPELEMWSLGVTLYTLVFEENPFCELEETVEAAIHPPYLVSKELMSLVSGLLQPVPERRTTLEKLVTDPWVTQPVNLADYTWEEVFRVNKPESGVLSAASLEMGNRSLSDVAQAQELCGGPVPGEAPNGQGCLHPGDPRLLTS
Kd [1],Kd [2],Kd [3],Kd [4],Kd [5],Kd [6],Kd (Aurora kinase A),Kd [7],Kd [8],Kd [9],Kd [10],Structure (SMILES),pKd [6]
> 30 µM (inactive),> 30 µM (inactive),> 30 µM (inactive),> 30 µM (inactive),> 30 µM (inactive),> 30 µM (inactive),> 30 µM (inactive),> 30 µM (inactive),> 30 µM (inactive),> 30 µM (inactive),,C[C@H]1CNCCCN1S(=O)(=O)c1cccc2cncc(F)c12,
> 30 µM (inactive),> 30 µM (inactive),> 30 µM (inactive),> 30 µM (inactive),> 30 µM (inactive),,> 30 µM (inactive),> 30 µM (inactive),> 30 µM (inactive),> 30 µM (inactive),> 30 µM (inactive),C=CC(=O)N1CCC[C@H](n2c(=O)n(-c3ccc(Oc4ccccc4)cc3)c3c(N)ncnc32)C1,8.30
> 30 µM (inactive),> 30 µM (inactive),> 30 µM (inactive),> 30 µM (inactive),> 30 µM (inactive),> 30 µM (inactive),> 30 µM (inactive),> 30 µM (inactive),> 30 µM (inactive),> 30 µM (inactive),,Cc1nc(NC(=O)N2CCC[C@H]2C(N)=O)sc1-c1ccnc(C(C)(C)C(F)(F)F)c1 [ALPELISIB],
> 30 µM (inactive),3.56 µM (active),> 30 µM (inactive),> 30 µM (inactive),> 30 µM (inactive),> 30 µM (inactive),,> 30 µM (inactive),> 30 µM (inactive),> 30 µM (inactive),,Cc1csc(-c2nnc(Nc3ccc(Oc4ncccc4-c4ccnc(N)n4)cc3)c3ccccc23)c1 [AMG-900],
> 30 µM (inactive),> 30 µM (inactive),> 30 µM (inactive),> 30 µM (inactive),> 30 µM (inactive),> 30 µM (inactive),> 30 µM (inactive),> 30 µM (inactive),> 30 µM (inactive),> 30 µM (inactive),> 30 µM (inactive),Cn1cnc2c(F)c(Nc3ccc(Br)cc3F)c(C(=O)NOCCO)cc21 [BINIMETINIB],
> 30 µM (inactive),0.0007 µM (active),> 30 µM (inactive),> 30 µM (inactive),0.001 µM (active),> 30 µM (inactive),> 30 µM (inactive),> 30 µM (inactive),> 30 µM (inactive),0.44 µM (active),> 30 µM (inactive),CCS(=O)(=O)N1CCN(c2ccc(Nc3ncc(C(N)=O)c(NC4CC4)n3)cc2)CC1 [Cerdulatinib Hydrochloride],
> 30 µM (inactive),> 30 µM (inactive),> 30 µM (inactive),> 30 µM (inactive),> 30 µM (inactive),> 30 µM (inactive),> 30 µM (inactive),> 30 µM (inactive),> 30 µM (inactive),> 30 µM (inactive),,Cc1nc2cc(-n3ncc(C(=O)c4cc5ccccc5[nH]4)c3N)ccc2[nH]1 [FGFR INHIBITOR DEBIO 1347],
> 30 µM (inactive),2.59 µM (active),> 30 µM (inactive),> 30 µM (inactive),3.65 µM (active),> 30 µM (inactive),> 30 µM (inactive),> 30 µM (inactive),> 30 µM (inactive),> 30 µM (inactive),,CN(C[C@@H]1COCCO1)S(=O)(=O)Nc1ccc2ccc3ncc(-c4cnn(C)c4)cc3c(=O)c2c1 [MK-2461],
> 30 µM (inactive),1.18 µM (active),,,1.17 µM (active),> 30 µM (inactive),,> 30 µM (inactive),> 30 µM (inactive),,> 30 µM (inactive),Cc1[nH]c(/C=C2\C(=O)Nc3ccccc32)c(C)c1CCC(=O)O [ORANTINIB],
> 30 µM (inactive),0.196 µM (active),,,,,,> 30 µM (inactive),,,> 30 µM (inactive),N#CC[C@H](C1CCCC1)n1cc(-c2ncnc3[nH]ccc23)cn1 [RUXOLITINIB],
> 30 µM (inactive),> 30 µM (inactive),> 30 µM (inactive),1.68 µM (active),> 30 µM (inactive),> 30 µM (inactive),> 30 µM (inactive),> 30 µM (inactive),,> 30 µM (inactive),,Cn1ncc(Cl)c1-c1cc(C(=O)N[C@H](CN)Cc2ccc(F)c(F)c2)oc1Cl [UPROSERTIB],

Structure (SMILES),Kd [1],Kd [2],Kd [3],Kd [4],Kd [5],Kd [6],Kd (Aurora kinase A),Kd [7],Kd [8],Kd [9],Kd [10],pKd [6]
CC(=O)c1cnc2ccc(-c3cc(Cl)c(O)c(Cl)c3)nc2c1N[C@H]1CC[C@H](CN(C)C)CC1,> 30 µM (inactive),,0.014 µM (active),0.931 µM (active),,> 30 µM (inactive),,> 30 µM (inactive),,> 30 µM (inactive),> 30 µM (inactive),
COc1cc([C@@H]2c3cc4c(cc3[C@H](O)[C@H]3COC(=O)[C@@H]23)OCO4)cc(OC)c1OC [AXL-1717],> 30 µM (inactive),> 30 µM (inactive),> 30 µM (inactive),> 30 µM (inactive),> 30 µM (inactive),> 30 µM (inactive),> 30 µM (inactive),> 30 µM (inactive),> 30 µM (inactive),> 30 µM (inactive),,
NC(=O)Nc1cc(-c2cccc(F)c2)sc1C(=O)N[C@H]1CCCNC1 [AZD-7762],> 30 µM (inactive),0.12 µM (active),0.36 µM (active),> 30 µM (inactive),0.073 µM (active),,> 30 µM (inactive),> 30 µM (inactive),> 30 µM (inactive),1.48 µM (active),> 30 µM (inactive),
CC(C)(C)c1nc(-c2cccc(NS(=O)(=O)c3c(F)cccc3F)c2F)c(-c2ccnc(N)n2)s1 [DABRAFENIB],> 30 µM (inactive),> 30 µM (inactive),,> 30 µM (inactive),> 30 µM (inactive),,> 30 µM (inactive),> 30 µM (inactive),> 30 µM (inactive),> 30 µM (inactive),> 30 µM (inactive),5.89
Cn1cc(C2=C(c3cn(C4CCN(Cc5ccccn5)CC4)c4ccccc34)C(=O)NC2=O)c2ccccc21 [ENZASTAURIN],> 30 µM (inactive),> 30 µM (inactive),,,,,,> 30 µM (inactive),,,,
O=C(Nc1nc2cccc(-c3ccc(CN4CCS(=O)(=O)CC4)cc3)n2n1)C1CC1 [FILGOTINIB],> 30 µM (inactive),,1.91 µM (active),> 30 µM (inactive),4.99 µM (active),> 30 µM (inactive),> 30 µM (inactive),> 30 µM (inactive),> 30 µM (inactive),> 30 µM (inactive),,
CCOc1cc2ncc(C#N)c(Nc3ccc(F)c(Cl)c3)c2cc1NC(=O)/C=C/CN(C)C [PELITINIB],> 30 µM (inactive),> 30 µM (inactive),,> 30 µM (inactive),> 30 µM (inactive),> 30 µM (inactive),> 30 µM (inactive),> 30 µM (inactive),> 30 µM (inactive),> 30 µM (inactive),> 30 µM (inactive),
